Results as given in patent US8471004B2, “Bicyclic compounds” (Hoffman-La Roche Inc., priority 2009, dated 2013).

These compounds were tested against T1, human chemokine receptor 2 isoform B (Homo sapiens, UniProt P41597) (assay: Calcium mobilization assay (CHOK1-CCR2B-A5 cells, FLIPR, MCP-1 stimulated)). Settings: Ca mobilisation assay for CCR2, antagonist activity, 50% inhibition of specific calcium increases after 20 nM MCP-1.
T1 construct: host or cells: CHOK1-CCR2B-A5 (CHO-K1)
T1 sequence (P41597 1-360 isoform P41597-2): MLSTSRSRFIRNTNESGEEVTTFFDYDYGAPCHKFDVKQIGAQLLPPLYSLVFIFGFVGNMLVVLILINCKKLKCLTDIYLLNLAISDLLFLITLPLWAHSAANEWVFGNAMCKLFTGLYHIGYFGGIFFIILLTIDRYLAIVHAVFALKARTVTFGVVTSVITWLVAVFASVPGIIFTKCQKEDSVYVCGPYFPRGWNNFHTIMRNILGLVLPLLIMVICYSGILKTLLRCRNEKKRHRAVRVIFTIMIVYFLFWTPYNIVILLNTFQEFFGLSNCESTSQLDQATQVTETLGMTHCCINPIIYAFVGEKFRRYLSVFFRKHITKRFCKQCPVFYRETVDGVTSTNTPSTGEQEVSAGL
Type: cell-based
Procedure: CHOK1-CCR2B-A5 cells (from Euroscreen) stably overexpressing the human chemokine receptor 2 isoform B were cultured in Nutrient Hams F12 medium supplemented with 5% FBS, 100 U/ml penicillin, 100 μg/ml streptomycin, 400 μg/ml G418 and 5 μg/ml puromycin.
For the assay cells were grown overnight in 384-well black clear flat bottom polystyrene plates (Costar) at 37° C. at 5% CO2. After washing with DMEM, 20 mM Hepes, 2.5 mM probenecid, 0.1% BSA (DMEM assay buffer) cells were loaded with 4 μM Fluo-4 in the same DMEM assay buffer for 2 hours at 30° C. Excess dye was removed and cells were washed with DMEM assay buffer. 384-well compound plates were prepared with DMEM assay buffer/0.5% DMSO with or without various concentrations of test compounds. Usually compounds were tested for agonist and antagonist activity.
Test compounds were added to the assay plate and agonist activity was monitored as fluorescence for 80 seconds with a FLIPR (488 nm excitation; 510-570 nm emission; Molecular Devices). After 20-30 min. of incubation at 30° C., 20 nM MCP-1 (R&D; Roche) was added and fluorescence was monitored again for 80 seconds. Increases in intracellular calcium are reported as maximum fluorescence after agonist exposure minus basal fluorescence before exposure. Antagonist activity is indicated as inhibitor concentration required for 50% inhibition of specific calcium increases.

Row | Compound | IC50
1 | C[C@H]1C(=O)N2C(CN1C(=O)Nc1ccc(Cl)c(Cl)c1)OC[C@@H]2CCC(=O)N1CCC2(CC2)[C@H](O)C1 (stereo partly drawn) [Example 23, (3S,6S)-3-[3-((S)-4-Hydroxy-6-aza-spiro[2.5]oct-6-yl)-3-oxo-propyl]-6-methyl-5-oxo-hexahydro-oxazolo[3,2-a]pyrazine-7-carboxylic acid (3,4-dichloro-phenyl)-amide] | 14.4 nM
2 | C[C@H]1C(=O)N2[C@@H](CCC(=O)N3CCC4(CC4)[C@H](O)C3)CO[C@@H]2CN1C(=O)Nc1ccc(C(F)(F)F)c(Cl)c1 [Example 24, (3S,6S,8aR)-3-[3-((S)-4-Hydroxy-6-aza-spiro[2.5]oct-6-yl)-3-oxo-propyl]-6-methyl-5-oxo-hexahydro-oxazolo[3,2-a]pyrazine-7-carboxylic acid (3-chloro-4-trifluoromethyl-phenyl)-amide] | 5.5 nM
3 | C[C@H]1C(=O)N2[C@@H](CCC(=O)N3CCC4(CC4)[C@H](O)C3)CO[C@H]2CN1C(=O)Nc1ccc(C(F)(F)F)c(Cl)c1 [Example 25, (3S,6S,8aS)-3-[3-((S)-4-Hydroxy-6-aza-spiro[2.5]oct-6-yl)-3-oxo-propyl]-6-methyl-5-oxo-hexahydro-oxazolo[3,2-a]pyrazine-7-carboxylic acid (3-chloro-4-trifluoromethyl-phenyl)-amide] | 20 nM
4 | C[C@H]1C(=O)N2[C@@H](CCC(=O)N3CCC4(CC4)[C@H](O)C3)CO[C@@H]2CN1C(=O)/C=C/c1ccc(F)c(Cl)c1 [Example 26, (3S,6S,8aR)-7-[(E)-3-(3-Chloro-4-fluoro-phenyl)-acryloyl]-3-[3-((S)-4-hydroxy-6-aza-spiro[2.5]oct-6-yl)-3-oxo-propyl]-6-methyl-hexahydro-oxazolo[3,2-a]pyrazin-5-one] | 61.8 nM
5 | C[C@H]1C(=O)N2[C@@H](CCC(=O)N3CCC4(CC4)[C@H](O)C3)CO[C@H]2CN1C(=O)/C=C/c1ccc(F)c(Cl)c1 [Example 27, (3S,6S,8aS)-7-[(E)-3-(3-Chloro-4-fluoro-phenyl)-acryloyl]-3-[3-((S)-4-hydroxy-6-aza-spiro[2.5]oct-6-yl)-3-oxo-propyl]-6-methyl-hexahydro-oxazolo[3,2-a]pyrazin-5-one] | 49.4 nM
6 | C[C@H]1C(=O)N2C(CN1C(=O)Nc1ccc(Cl)c(Cl)c1)OCCC[C@H]2CN1CCC2(CC2)[C@H](O)C1 (stereo partly drawn) [Example 28, (3S,5S)-5-((S)-4-Hydroxy-6-aza-spiro[2.5]oct-6-ylmethyl)-3-methyl-4-oxo-octahydro-9-oxa-2,4a-diaza-benzocycloheptene-2-carboxylic acid (3,4-dichloro-phenyl)-amide] | 3.7 nM
7 | C[C@H]1C(=O)N2C(CN1C(=O)Nc1ccc(Cl)c(Cl)c1)OC[C@@H]2CC(=O)N1CCC2(CC2)[C@H](O)C1 (stereo partly drawn) [Example 29, (3S,6S)-3-[2-((S)-4-Hydroxy-6-aza-spiro[2.5]oct-6-yl)-2-oxo-ethyl]-6-methyl-5-oxo-hexahydro-oxazolo[3,2-a]pyrazine-7-carboxylic acid (3,4-dichloro-phenyl)-amide] | 774 nM
8 | C[C@H]1C(=O)N2C(CN1C(=O)Nc1ccc(Cl)c(Cl)c1)OCC[C@H]2CN1CCC2(CC2)[C@H](O)C1 (stereo partly drawn) [Example 30, (4S,7S)-4-((S)-4-Hydroxy-6-aza-spiro[2.5]oct-6-ylmethyl)-7-methyl-6-oxo-hexahydro-pyrazino[2,1-b][1,3]oxazine-8-carboxylic acid (3,4-dichloro-phenyl)-amide] | 1.5 nM
9 | C[C@H]1C(=O)N2[C@@H](CCN3CCC4(CC4)[C@H](O)C3)COC[C@H]2CN1C(=O)Nc1ccc(Cl)c(Cl)c1 [Example 31, (4S,7S,9aR)-4-[2-((S)-4-Hydroxy-6-aza-spiro[2.5]oct-6-yl)-ethyl]-7-methyl-6-oxo-hexahydro-pyrazino[2,1-c][1,4]oxazine-8-carboxylic acid (3,4-dichloro-phenyl)-amide] | 1.9 nM
10 | C[C@H]1C(=O)N2[C@@H](CCN3CCC4(CC4)[C@H](O)C3)COC[C@H]2CN1C(=O)Nc1ccc(C(F)(F)F)c(Cl)c1 [Example 32, (4S,7S,9aR)-4-[2-((S)-4-Hydroxy-6-aza-spiro[2.5]oct-6-yl)-ethyl]-7-methyl-6-oxo-hexahydro-pyrazino[2,1-c][1,4]oxazine-8-carboxylic acid (3-chloro-4-trifluoromethyl-phenyl)-amide] | 2.1 nM
11 | C[C@H]1C(=O)N2[C@@H](CCN3CCC4(CC4)[C@H](O)C3)CC[C@H]2CN1C(=O)Nc1ccc(Cl)c(Cl)c1 [Example 33, (3S,6R,8aS)-6-[2-((S)-4-Hydroxy-6-aza-spiro[2.5]oct-6-yl)-ethyl]-3-methyl-4-oxo-hexahydro-pyrrolo[1,2-a]pyrazine-2-carboxylic acid (3,4-dichloro-phenyl)-amide] | 2.7 nM
12 | C[C@H]1C(=O)N2[C@@H](CCC(=O)N3CCC4(CC4)[C@H](O)C3)CO[C@@H]2CN1C(=O)Nc1ccc(Cl)c(Cl)c1 [Example 35, (3S,6S,8aR)-3-[3-((S)-4-Hydroxy-6-aza-spiro[2.5]oct-6-yl)-3-oxo-propyl]-6-methyl-5-oxo-hexahydro-oxazolo[3,2-a]pyrazine-7-carboxylic acid (3,4-dichloro-phenyl)-amide] | 5.7 nM
13 | C[C@H]1C(=O)N2[C@@H](CCC(=O)N3CCC4(CC4)[C@H](O)C3)CO[C@H]2CN1C(=O)Nc1ccc(Cl)c(Cl)c1 [Example 36, (3S,6S,8aS)-3-[3-((S)-4-Hydroxy-6-aza-spiro[2.5]oct-6-yl)-3-oxo-propyl]-6-methyl-5-oxo-hexahydro-oxazolo[3,2-a]pyrazine-7-carboxylic acid (3,4-dichloro-phenyl)-amide] | 9.3 nM
14 | C[C@H]1C(=O)N2[C@@H](CCC(=O)N3CCC4(CC4)[C@H](O)C3)COC2(C)CN1C(=O)Nc1ccc(C(F)(F)F)c(Cl)c1 (stereo partly drawn) [Example 37, (3S,6S)-3-[3-((S)-4-Hydroxy-6-aza-spiro[2.5]oct-6-yl)-3-oxo-propyl]-6,8a-dimethyl-5-oxo-hexahydro-oxazolo[3,2-a]pyrazine-7-carboxylic acid (3-chloro-4-trifluoromethyl-phenyl)-amide] | 360 nM
15 | C[C@H]1C(=O)N2[C@H](CCN3CCC4(CC4)[C@H](O)C3)CCC[C@@H]2CN1C(=O)Nc1ccc(Cl)c(Cl)c1 [Example 39, (3S,6S,9aR)-6-[2-((S)-4-Hydroxy-6-aza-spiro[2.5]oct-6-yl)-ethyl]-3-methyl-4-oxo-octahydro-pyrido[1,2-a]pyrazine-2-carboxylic acid (3,4-dichloro-phenyl)-amide] | 135 nM
16 | C[C@H]1C(=O)N2[C@H](CCN3CCC4(CC4)[C@H](O)C3)COC[C@@H]2CN1C(=O)Nc1ccc(Cl)c(Cl)c1 [Example 40, (4R,7S,9aS)-4-[2-((S)-4-Hydroxy-6-aza-spiro[2.5]oct-6-yl)-ethyl]-7-methyl-6-oxo-hexahydro-pyrazino[2,1-c][1,4]oxazine-8-carboxylic acid (3,4-dichloro-phenyl)-amide] | 340 nM
17 | C[C@H]1C(=O)N2[C@@H](CCCN3CCC4(CC4)[C@H](O)C3)CC[C@H]2CN1C(=O)Nc1ccc(Cl)c(Cl)c1 [Example 41, (3S,6S,8aS)-6-[3-((S)-4-Hydroxy-6-aza-spiro[2.5]oct-6-yl)-propyl]-3-methyl-4-oxo-hexahydro-pyrrolo[1,2-a]pyrazine-2-carboxylic acid (3,4-dichloro-phenyl)-amide] | 3.3 nM
